Assay results as given in US5965787A, “HLA-DRBI peptides with specific binding affinity for HLA-DQ molecules: prevention and treatment of rheumatoid arthritis” (Mayo Foundation for Medical Education and Research, priority 1995, dated 1999).

System: lymph node cells from B10.RQB3-DRB1*1502 positive and negative littermates (H-2A^q)
Assay: T cell proliferation assay, lymph node cells of immunized B10.RQB3 mice
Type: cell-based, mouse
Conditions: for T cell response of DRB1*1502 transgene positive animals compared with negative littermates / B10.RQB3 controls: mice immunized with 200 μg HII 250-270 in CFA, in vitro HII 250-270 4, 20, 100 μg/ml, PPD 20, LPS 40, Con A 10 μg/ml, FIG. 2

Substance	T cell response of DRB1*1502 transgene positive animals compared with negative littermates / B10.RQB3 controls	mean cpm of lymph node cells challenged in vitro (positive control of the DRB1 peptide proliferation assay)
Concanavalin A [Con A]	similar	> 100,000 cpm
lipopolysaccharide [LPS]	similar	
